Assay [1] concerns mouse endothelial cells (bEnd3). As to the kind of experiment: bEnd3 endothelial cell proliferation (BrdU incorporation). The class given is cell-based. The following applies: apelin 10 ng/ml or VEGF 50 ng/ml; 0.1 ng/ml to 1 μg/ml (FIG. 17). As for the experimental part:
Similar cellular proliferation assays were performed using mouse endothelial cells (bEnd3) that constitutively express APJ. […] SU1498 was included in proliferation cultures at a 25 μM concentration, and results were assayed using BrdU incorporation.
Proliferation inhibition experiments with the bEnd3 cells also were carried out using FGF (50 ng/ml) or the FGF pathway inhibitor SU5402 (FIG. 19). SU5402 was included in proliferation cultures at a 20 μM concentration, and results were assayed using BrdU incorporation.

Another assay relates to VEGF mRNA expression. The conditions noted are these: apelin-soaked bead, frog embryo. Here is the method:
Beads were microsurgically implanted in an avascular region, the posterior lateral mesoderm, of stage 24-26 embryos. Embryos were cultured in 0.2× MMR until stage 35-37, at which time they were prepared for whole mount in situ hybridization analysis as described in Example 2. The embryonic vascular system was visualized using an antisense probe directed against transcripts encoding the Xenopus vascular marker, erg (Baltzinger et al., 1999, Dev. Dyn. 216:420-33).

Another assay deals with lymphatic vessels. Description: In vivo lymphatic vessel branching assay, quail CAM. The conditions noted are these: collagen disk with 50 ng apelin or 100 ng VEGF-C on CAM of 7 day quail embryos, 18 hours. As for the experimental part: (§1) All experiments were carried out using chorioallantoic membranes (CAMs) of quail embryos. Quail embryos used for the lymphatic experiments were 7 days old. Collagen purified from rat tails (Bernanke and Markwald, 1982) was polymerized in 2 mm disks at a final concentration of approximately 1.6 mg/ml in standard phosphate buffered saline (PBS). The total volume of the collagen disk was approximately 10 μl. For experimental treatments, the collagen disks were supplemented with either 50 ng of apelin peptide or 100 ng of VEGF-C protein prior to polymerization at 37° C. for 30 minutes. The VEGF-C was a positive control for these experiments. (Recombinant Human VEGF-C (Cys156Ser), R&D Systems, cat # 752-vc). Apelin peptide was synthesized by Sigma-Genosys (>90% purity).
For lymphangiogenesis assays, the CAMs of 7 day quail embryos were exposed, in ovo, and the collagen disks were placed directly onto the surface of the CAM. […]
(§2) The samples were incubated with primary antibody (Prox1, Research Diagnostics, cat # RDI-102PA30, diluted to 2 μg/ml final concentration) for 4 hours at room temperature or overnight at 4° C. […] Both the lymphatic cell number as well as the number of lymphatic branches were determined.
Both blood vessels and lymphatic vessels were stained with the QH-1 antibody. […] The number of lymphatic vessels branching away from blood vessels (towards the collagen disk) were counted. […]

Assay [2] has as its system lymphatic endothelial cells. Description: In vivo lymphatic cell number assay, quail CAM (Prox1 staining). The following applies: collagen disk with 50 ng apelin or 100 ng VEGF-C on CAM of 7 day quail embryos, 18 hours. As for the experimental part: as §1, with “purity). […]” for “purity).”
as §2
Assays for lymphatic cell number were carried out in areas of the CAM that were close to the location of the collagen disk as described above. Since Prox1 specifically stains lymphatic endothelial cell nuclei, the number of cells in the lymphatic branches was counted directly. […]

Regarding Apelin-13, the “cellular proliferation of endothelial cells” value in assay [1] is listed as “induces the cellular proliferation of endothelial cells”. The “VEGF expression in the vicinity of the bead” value in the assay with VEGF mRNA expression is “no upregulation of VEGF expression”. Further, the “number of lymphatic vessels branching away from blood vessels” value with lymphatic vessels is recorded as “positive regulator of lymphatic branching angiogenesis”. Also, the “lymphatic cell number (Prox1 positive nuclei)” value in assay [2] is “mitogenic factor for lymphatic endothelial cells”.

The values above are taken from patent publication US20060159676A1, “Methods for modulating angiogenesis, lymphangiogenesis, and apoptosis with apelin compositions” (priority 2005, published 2006).
